Reference: patent publication US11839623B2, “Antiviral prodrugs and formulations thereof” (BOARD OF REGENTS OF THE UNIVERSITY OF NEBRASKA, priority 2018, dated 2023)

How the values were obtained:
[1] = tested on: monocyte-derived macrophages (MDM); assay: Macrophage uptake and retention of ABC, NMABC, NPABC; assay type: cell-based, human; conditions: 100 μM, 8 hours loading
Method: Macrophage uptake and retention. Human monocytes were obtained by leukapheresis from HIV-1/2 and hepatitis B seronegative donors, and then purified by counter-current centrifugal elutriation as described (Balkundi, et al., Intl. J. Nanomed. (2011) 6:3393-3404; Nowacek, et al., Nanomed. (2009) 4(8):903-917). Human monocytes were plated in a 12-well plate at a density of 1.0×10^6 cells per well using DMEM supplemented with 10% heat-inactivated pooled human serum, 1% glutamine, 10 μg/mL ciprofloxacin, and 50 μg/mL gentamicin. Cells were maintained at 37° C. in a 5% CO2 incubator. After 7 days of differentiation in the presence of 1000 U/mL recombinant human macrophage colony stimulating factor (MCSF), MDM were treated with 100 μM ABC, nanoformulated myristoylated ABC (NMABC; described in PCT/US15/54826), or NPABC. Uptake of drug was assessed by measurements of intracellular drug concentrations at 1, 2, 4 and 8 hours after treatment. For drug retention studies, cells were treated for 8 hours then washed with PBS and maintained with half-media changes every other day until collection at days 1, 5, 10, 15 and 20. For both studies, adherent MDM were washed with PBS, then scraped into PBS, and counted at indicated time points using an Invitrogen Countess Automated Cell Counter (Carlsbad, Calif.). […] Drug content was determined by UPLC-UV/Vis.

[2] = tested on: HIV-1ADA; assay: Antiretroviral efficacy of nanoformulations in MDM challenged with HIV-1ADA (RT activity, p24); assay type: cell-based; conditions: 100 μM 8 hours, all time points
Method: Antiretroviral efficacy of nanoformulations: Antiviral efficacies of ABC and the ProTide nanoformulations in MDM were assessed as described (Singh, et al., Nanomedicine (2016) 11:1913-1927). MDM were treated with 100 μM different nanoformulations for 8 hours. Then nanoformulation-containing medium was replaced with fresh medium after washing MDM with PBS twice. Half media changes were conducted every other day. At predetermined time points, days 1, 5, 10, 15, 20, 25 and 30, MDM were infected with HIV-1ADA for 4 hours at a MOI of 0.1 and cultured with every-other-day half media changes for an additional 10 days. At day 10, supernatant was collected for RT assay and MDM were fixed with paraformaldehyde and immunostained for expression of HIVp24. Untreated, uninfected MDM served as negative controls (control), while MDM exposed to HIV-1ADA but not treated with nanoformulations, served as positive controls (HIV-1). For NM3ABC, a concentration response study was also conducted. MDM were treated with 1, 10, 25, 50 or 100 μM NM3ABC for 8 hours. The treated MDM were then washed twice with PBS. MDM were cultured for an additional 30 days in fresh media with half media changes every other day. At day 30, MDM were challenged with HIV-1ADA at a MOI of 0.1 for 4 hours. Excess virus was washed out with PBS and MDM were cultured for another 10 days. […]

[3] = tested on: HIV-1ADA; assay: IC50 determination of ABC, MABC, PABC in MDM challenged with HIV-1ADA (RT activity); assay type: cell-based; conditions: Human immunodeficiency virus 1, 240 h, HIV-1ADA MOI 0.1, RT activity day 10, read-out: IC50 on reverse transcriptase
Method: Antiretroviral activities. Antiretroviral efficacy was determined by measurements of HIV reverse transcriptase (RT) activity. For IC50 determination, MDM were exposed to various concentrations (0.01-1000 nM) of ABC, MABC or PABC for 1 hour followed by challenge with HIV-1ADA at a multiplicity of infection (MOI) of 0.1 infectious particles per cell for 4 hours. Following viral challenge, cells were washed and incubated with the same concentration of drug used before infection for an additional 10 days in culture. Culture fluids were collected on day 10 for the measurement of RT activity. To assess antiretroviral efficacy, MDM were treated with 100 μM ABC, PABC or NPABC as described above for 8 hours. After treatment, cells were washed with PBS and cultured with fresh media, with half-media exchanges every other day. At 0, 4, 12 hours, and 1, 5, 10, 15 or 20 days after treatment, cells were challenged with HIV-1ADA at an MOI of 0.1 infectious particles per cell for 16 hours. After viral infection, the cells were cultured an additional 10 days with half-media exchanges every other day. Culture fluids were collected for measurement of RT activity. Cells were fixed with 4% PFA and expression of HIV-1 p24 antigen was determined by immunocytochemistry.

[4] = tested on: monocyte-derived macrophages (MDM); assay: Intracellular CBV-TP in MDM after 100 μM ABC or ProTide nanoformulations (uptake and retention); assay type: cell-based; conditions: human
Method: Briefly, MDM were treated with different nanoformulations at a concentration of 100 μM for 1, 2, 4 and 8 hours. At select time points, adherent MDM were collected in 1 mL PBS after washing with 1 mL PBS twice. MDM were pelleted by centrifugation at 3,000 rpm for 8 minutes. The cell pellet was reconstituted in 200 μl methanol and probe sonication (10 seconds) was used to break the cells and extract drugs. After probe sonication, cell debris was pelleted by centrifugation at 14,000 rpm for 10 minutes and 4° C. The supernatant was analyzed for prodrug level using HPLC-UV/Vis. For retention, MDM were treated with 100 μM different nanoformulations for 8 hours. The nanoformulation-containing media were replaced with fresh media after washing MDM with PBS twice. At days 1, 5, 10, 15, 20, 25 and 30, MDM were collected in 1 mL PBS after washing with 1 mL PBS twice. The samples were processed as described above for analysis using HPLC. Intracellular CBV-TP levels were also measured for as an indicator of cell uptake and retention. Briefly, cells were scraped into PBS, pelleted by centrifugation at 3,000 rpm for 8 minutes, and reconstituted in 200 μl 70% methanol. CBV-TP was extracted, and the samples were analyzed by LC-MS/MS as described (Gautam, et al., J. Pharm. Biomed. Anal. (2018) 153:248-259).

Nc1nc(NC2CC2)c2ncn([C@H]3C=C[C@@H](CO)C3)c2n1 [ABC, abacavir]
eliminated from MDM within [1]: within a day | protection against viral infection [2]: minimal protection against viral infection | IC50 [3]: 131 nM | decrease of CBV-TP from 4 hours to 8 hours [4]: 37% | retention of CBV-TP in MDMs, detected/sustained until day ([4]; 30 day): 5 days
